Test results taken from ChEMBL document CHEMBL1201862, “PubChem BioAssay data set” (2004).
Calls of active or inactive are those of the source.

Key:
[1] = biological target: T1, Mannose-6-phosphate isomerase (Homo sapiens, UniProt P34949); experiment: human PMI inhibitors, high substrate, primary screen, biochemical, fluorescence intensity, high mannose 6-phosphate (AID 1220)
T1 sequence (P34949 whole entry): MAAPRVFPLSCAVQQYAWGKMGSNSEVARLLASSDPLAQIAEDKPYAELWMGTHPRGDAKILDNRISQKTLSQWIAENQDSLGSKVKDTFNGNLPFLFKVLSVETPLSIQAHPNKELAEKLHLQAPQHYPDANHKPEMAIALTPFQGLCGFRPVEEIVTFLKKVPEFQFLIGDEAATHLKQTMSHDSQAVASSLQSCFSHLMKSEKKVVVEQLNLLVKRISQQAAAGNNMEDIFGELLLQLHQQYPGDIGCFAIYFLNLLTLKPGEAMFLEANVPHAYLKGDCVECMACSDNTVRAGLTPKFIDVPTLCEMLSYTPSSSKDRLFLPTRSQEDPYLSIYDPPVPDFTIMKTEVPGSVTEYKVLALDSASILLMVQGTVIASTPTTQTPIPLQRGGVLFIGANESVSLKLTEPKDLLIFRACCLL

Beta-galactosidase = Beta-galactosidase (Escherichia coli, UniProt Q8VNN2); experiment: PubChem AID 485352; format: functional
Chain of Beta-galactosidase (Q8VNN2 whole entry): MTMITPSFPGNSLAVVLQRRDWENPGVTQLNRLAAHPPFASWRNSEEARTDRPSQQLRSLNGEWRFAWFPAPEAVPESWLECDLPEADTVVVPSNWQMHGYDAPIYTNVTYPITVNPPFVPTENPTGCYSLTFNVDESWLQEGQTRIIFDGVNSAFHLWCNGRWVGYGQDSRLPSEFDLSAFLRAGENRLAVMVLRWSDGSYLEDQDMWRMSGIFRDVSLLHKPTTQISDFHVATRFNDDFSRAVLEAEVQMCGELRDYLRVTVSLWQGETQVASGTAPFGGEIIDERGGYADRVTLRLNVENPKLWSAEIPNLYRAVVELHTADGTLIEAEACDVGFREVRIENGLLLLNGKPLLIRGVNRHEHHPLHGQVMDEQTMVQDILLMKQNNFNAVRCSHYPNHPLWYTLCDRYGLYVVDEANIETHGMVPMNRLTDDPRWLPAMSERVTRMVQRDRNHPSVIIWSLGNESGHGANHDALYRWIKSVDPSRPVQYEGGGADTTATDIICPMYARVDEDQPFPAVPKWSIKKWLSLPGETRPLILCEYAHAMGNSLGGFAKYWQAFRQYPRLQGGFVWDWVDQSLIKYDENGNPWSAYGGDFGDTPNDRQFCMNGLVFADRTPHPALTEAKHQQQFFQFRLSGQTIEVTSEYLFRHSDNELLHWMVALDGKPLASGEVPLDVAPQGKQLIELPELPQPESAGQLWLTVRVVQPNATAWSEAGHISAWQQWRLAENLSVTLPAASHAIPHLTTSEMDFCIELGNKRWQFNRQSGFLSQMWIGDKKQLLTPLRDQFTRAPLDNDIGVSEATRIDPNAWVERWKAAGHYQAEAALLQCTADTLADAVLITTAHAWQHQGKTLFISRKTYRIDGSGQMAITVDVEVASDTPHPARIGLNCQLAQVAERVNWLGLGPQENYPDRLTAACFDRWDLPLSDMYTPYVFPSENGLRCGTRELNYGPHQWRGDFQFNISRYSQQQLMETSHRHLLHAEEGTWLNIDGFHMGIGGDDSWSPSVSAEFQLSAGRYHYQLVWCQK

[2] = biological target: T2, Type-1 angiotensin II receptor (Homo sapiens, UniProt P30556); experiment: AT1 receptor antagonists, dose response, selectivity assay for APJ receptor antagonist project, cell-based, uHTS hits (AID 463214); format: functional;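 also: antagonist potency against angiotensin II stimulated AT1 response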
T2 sequence (P30556 whole entry): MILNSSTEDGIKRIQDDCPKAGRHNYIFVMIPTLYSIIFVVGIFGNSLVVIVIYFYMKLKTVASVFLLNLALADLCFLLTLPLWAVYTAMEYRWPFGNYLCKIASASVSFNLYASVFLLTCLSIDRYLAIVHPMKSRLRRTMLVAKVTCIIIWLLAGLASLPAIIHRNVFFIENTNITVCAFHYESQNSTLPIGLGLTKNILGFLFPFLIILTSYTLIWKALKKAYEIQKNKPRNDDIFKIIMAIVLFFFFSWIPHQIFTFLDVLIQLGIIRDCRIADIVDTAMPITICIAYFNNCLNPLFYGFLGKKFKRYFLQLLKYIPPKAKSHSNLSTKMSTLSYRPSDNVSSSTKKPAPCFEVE

[3] = biological target: T3, 1-phosphatidylinositol 4,5-bisphosphate phosphodiesterase gamma-1 (Homo sapiens, UniProt P19174); experiment: Counterscreen for inhibitors of phospholipase C isozymes (PLC-B3): Fluorescence-based biochemical high throughput dose response assay to identify inhibitors of phospholipase C isozymes (PLC-gamma1).
T3 sequence (P19174 whole entry): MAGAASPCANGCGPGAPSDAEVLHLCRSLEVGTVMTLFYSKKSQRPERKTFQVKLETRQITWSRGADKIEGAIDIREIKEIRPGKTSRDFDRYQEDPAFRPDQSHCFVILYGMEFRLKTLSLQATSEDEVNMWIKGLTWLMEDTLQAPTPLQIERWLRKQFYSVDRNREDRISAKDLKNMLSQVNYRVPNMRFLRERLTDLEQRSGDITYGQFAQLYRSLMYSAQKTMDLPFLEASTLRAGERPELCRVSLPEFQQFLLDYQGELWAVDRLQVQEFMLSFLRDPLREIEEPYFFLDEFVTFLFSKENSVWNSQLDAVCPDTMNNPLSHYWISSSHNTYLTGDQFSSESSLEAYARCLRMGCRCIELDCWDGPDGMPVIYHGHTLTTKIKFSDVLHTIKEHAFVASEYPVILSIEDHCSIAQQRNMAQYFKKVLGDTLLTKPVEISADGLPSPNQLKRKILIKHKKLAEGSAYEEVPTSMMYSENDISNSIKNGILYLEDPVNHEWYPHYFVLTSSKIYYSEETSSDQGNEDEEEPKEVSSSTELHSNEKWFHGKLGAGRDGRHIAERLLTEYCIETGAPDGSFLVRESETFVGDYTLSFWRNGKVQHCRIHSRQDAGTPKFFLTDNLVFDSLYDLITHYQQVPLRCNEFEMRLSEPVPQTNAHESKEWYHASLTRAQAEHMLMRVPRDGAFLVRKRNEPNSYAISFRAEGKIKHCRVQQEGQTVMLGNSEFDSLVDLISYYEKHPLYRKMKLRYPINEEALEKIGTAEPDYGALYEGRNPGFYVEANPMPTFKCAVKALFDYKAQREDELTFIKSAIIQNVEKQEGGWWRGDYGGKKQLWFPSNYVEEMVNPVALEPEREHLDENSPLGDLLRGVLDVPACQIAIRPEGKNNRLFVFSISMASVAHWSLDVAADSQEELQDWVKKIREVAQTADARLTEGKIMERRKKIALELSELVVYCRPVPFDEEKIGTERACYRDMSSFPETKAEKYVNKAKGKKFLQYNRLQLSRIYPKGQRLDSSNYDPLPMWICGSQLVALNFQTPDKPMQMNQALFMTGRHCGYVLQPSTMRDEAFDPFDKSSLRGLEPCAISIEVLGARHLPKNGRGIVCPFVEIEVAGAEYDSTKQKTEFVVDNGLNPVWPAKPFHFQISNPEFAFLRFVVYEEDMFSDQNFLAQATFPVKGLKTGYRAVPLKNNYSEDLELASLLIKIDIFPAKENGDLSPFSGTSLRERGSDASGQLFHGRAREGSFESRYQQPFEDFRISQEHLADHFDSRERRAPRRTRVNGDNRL

Cysteine protease ATG4B = biological target: T4, Cysteine protease ATG4B (Homo sapiens, UniProt Q9Y4P1); format: functional;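 also: Fluorescence-based dose-response confirmation assay measuring inhibition of ATG4B activity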
T4 sequence (Q9Y4P1 whole entry): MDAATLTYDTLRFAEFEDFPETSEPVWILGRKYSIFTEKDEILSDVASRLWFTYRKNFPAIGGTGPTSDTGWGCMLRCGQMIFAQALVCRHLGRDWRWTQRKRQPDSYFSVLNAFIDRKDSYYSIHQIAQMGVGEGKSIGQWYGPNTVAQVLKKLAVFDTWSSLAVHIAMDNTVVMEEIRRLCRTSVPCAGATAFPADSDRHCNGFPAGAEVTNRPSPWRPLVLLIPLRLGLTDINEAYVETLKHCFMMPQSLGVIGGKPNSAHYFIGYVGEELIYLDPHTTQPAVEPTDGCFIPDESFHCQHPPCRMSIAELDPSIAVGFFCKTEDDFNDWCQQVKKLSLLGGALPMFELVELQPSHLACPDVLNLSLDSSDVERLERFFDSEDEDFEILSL

[4] = biological target: C-C chemokine receptor type 6 (Homo sapiens, UniProt P51684); experiment: CCR6 receptor antagonists, dose response, cell-based, luminescent beta-arrestin readout (AID 504728); format: functional
Chain of C-C chemokine receptor type 6 (P51684 whole entry): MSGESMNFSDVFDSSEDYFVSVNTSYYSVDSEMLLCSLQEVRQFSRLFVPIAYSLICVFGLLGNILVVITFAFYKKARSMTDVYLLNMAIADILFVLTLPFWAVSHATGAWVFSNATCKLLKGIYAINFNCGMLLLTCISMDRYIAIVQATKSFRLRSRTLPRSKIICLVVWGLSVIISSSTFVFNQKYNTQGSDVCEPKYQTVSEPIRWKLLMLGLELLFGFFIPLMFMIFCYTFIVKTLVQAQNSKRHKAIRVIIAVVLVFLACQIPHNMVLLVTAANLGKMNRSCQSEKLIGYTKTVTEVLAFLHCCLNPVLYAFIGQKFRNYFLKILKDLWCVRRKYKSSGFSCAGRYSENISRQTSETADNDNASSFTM

HeLa = experiment: Cytotoxicity counterscreen assay for transcriptional activators of heat shock protein 70 (Hsp70). [Related pubchem assays: 1203, 1252 ]; format: functional; conditions: Homo sapiens
BJ = experiment: cytotoxicity toward Ras-transformed BJeLR fibroblasts, dose response, cell-based, alamar blue fluorescence, cherrypicked samples (AID 2631); format: functional; conditions: Homo sapiens;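 also: confirmatory dose-response assay in RAS-dependent BJ fibroblasts engineered with TERT, LT and ST, with cytotoxicity read by fluorescence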
[5] = biological target: Sphingosine 1-phosphate receptor 1 (Homo sapiens, UniProt P21453); format: functional;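 also: Tango beta-arrestin reporter U2OS cells stimulated with S1P near its EC80; inhibitor potency meaning antagonism of receptor activation by the natural agonist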
Chain of Sphingosine 1-phosphate receptor 1 (P21453 whole entry): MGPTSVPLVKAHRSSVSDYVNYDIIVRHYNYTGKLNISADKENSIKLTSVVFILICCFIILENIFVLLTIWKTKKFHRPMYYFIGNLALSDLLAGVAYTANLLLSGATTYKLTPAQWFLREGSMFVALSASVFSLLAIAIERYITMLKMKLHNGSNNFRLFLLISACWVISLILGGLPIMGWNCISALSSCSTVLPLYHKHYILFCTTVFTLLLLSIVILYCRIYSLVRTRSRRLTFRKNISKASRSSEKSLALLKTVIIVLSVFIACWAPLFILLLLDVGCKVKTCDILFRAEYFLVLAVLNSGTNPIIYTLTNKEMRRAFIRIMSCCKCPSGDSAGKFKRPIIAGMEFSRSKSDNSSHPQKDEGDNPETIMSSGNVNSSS

[6] = Shn3 3'UTR reporter inhibitors, dose response, cell-based, Clone20 osteoblasts, firefly luciferase, cherry-picked (AID 624132); format: functional;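 also: firefly luciferase luminescence from reporter carrying the Shn3 3'UTR in osteoblasts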
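For CC50 in this document: cells exposed to compound for 16 hours before readout.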

## CCCCn1c(NC(=O)c2ccco2)c(C(=O)OCC)c2nc3ccccc3nc21
[1]
  IC50: > 50 µM (not active)
Beta-galactosidase
  EC50: > 40 µM (inactive)
[2]
  IC50: 10.4 µM (active)

## Cc1ccccc1NC1=C/C(=N\S(=O)(=O)c2ccc(C(=O)O)cc2)c2ccccc2C1=O
[3]
  IC50: 90.1 µM (inactive)
Cysteine protease ATG4B
  IC50: 5.85 µM (active)

## Cc1ccc(NC2=C/C(=N/S(=O)(=O)c3cccs3)c3ccccc3C2=O)cc1
[4]
  IC50: > 66.6 µM (inactive)

## COC(=O)C[C@]1(C(=O)OC)CN(C#N)N(c2ccc(Cl)cc2)C12c1ccccc1-c1ccccc12
HeLa
  CC50: 3.55 µM (active)
BJ
  EC50: 1.07 µM (active)
[5]
  IC50: 5.39 µM (active)
[6]
  AC50: 1.88 µM (active)
